Tests used:
[1] = ABTS radical cation scavenging assay; details: 100 μM
Description: For ABTS^+• scavenging experiments, ABTS^+• was generated by oxidizing ABTS using potassium persulfate. All test samples (Trolox [TR; positive material] and 1–15) were used at a final concentration of 100 μM. […] Both compounds share a common catechol structure. […] Similar results were obtained in the DPPH radical scavenging experiment. […] Compounds 4, 9, and 14, bearing a 4-hydroxy-3-methoxyphenyl, scavenged ABTS^+• moderately (23–51%).
3.15. 2,2′-Azino-bis(3-ethylbenzothiazoline-6-sulfonic Acid) (ABTS) Radical Cation Scavenging Assay
The effect of the 2-phenylbenzoxazole compounds 1–15 on radical scavenging was assessed using an ABTS assay, as previously reported. An ABTS aqueous solution (7 mM) was mixed with a K2S2O8 aqueous solution (2.45 mM) in equal volumes (each 20 mL) and incubated in the dark for 20 h at 25 °C to generate ABTS^+•. The ABTS^+• solution was then diluted with pure EtOH to adjust the absorbance of the solution to 0.7 ± 0.02 at 730 nm. The test samples (1–15 and Trolox [positive control]) were dissolved in a co-solvent of EtOH and DMSO (9:1, v/v) to make a 1 mM solution. The diluted ABTS^+• solution was mixed with the test sample solution at a volume ratio of 9:1 (90 μL:10 μL) and the mixture was stored for 2 min at 20 °C in the dark. The optical density was measured at 730 nm using an ELISA reader at 1 min intervals for 10 min. All test samples were used at a final concentration of 100 µM.
ABTS^+• radical scavenging activity (%) = [(ODcon − ODsam)/ODcon] × 100, where ODsam and ODcon represent the absorbances of the test sample and the control, respectively.

B16F10 cells = assay: Cellular melanin content assay in B16F10 cells; assay type: cell-based, murine; details: 72 h; for melanin content in B16F10 cells: 1, 2, 5 μM, α-MSH 1 μM + IBMX 200 μM; for melanin content in B16F10 cells at 5 μM vs kojic acid: compound 5 μM, kojic acid 5 μM, α-MSH + IBMX
Description: The B16F10 cells were exposed to each compound (1, 2, and 5 μM) for 1 h. Following this, stimulators (1 μM α-MSH [α-melanocyte-stimulating hormone] and 200 μM IBMX [3-isobutyl-1-methylxanthine]) were treated for 72 h. Kojic acid (5 μM) was utilized as a comparative control.
3.8. Cellular Melanin Content Level Assay in B16F10 Cells
The effects of compounds 3, 8, and 13 on B16F10 cellular melanin production were investigated using a previously reported method. B16F10 cells (5 × 10^3 cells per well) were seeded in a 6-well plate and cultured under the same conditions as the cell culture for 24 h. […] Stimulators, including 1 μM α-melanocyte-stimulating hormone (α-MSH) and 200 μM 3-isobutyl-1-methylxanthine (IBMX), were then added. After 72 h of cultivation, the cells were rinsed with PBS, detached from the bottom of each well using Trypsin-EDTA, and centrifuged for 10 min at 10,000× g and 4 °C. The obtained pellets were lysed with 100 μL of 1N-NaOH solution for 1 h at 60 °C and transferred to a 96-well plate. The optical density was measured at 405 nm using an ELISA reader. Normalization was conducted using a Pierce BCA Protein Assay Kit (Thermo Scientific, MA, USA).
Melanin content (%) = (ΔODsam/ΔODcon) × 100%, where ODsam and ODcon represent the optical densities of the sample and control, respectively.

[2] = test system: B16F10 cellular tyrosinase; assay: Cellular tyrosinase activity assay in B16F10 cells; assay type: cell-based, murine; details: 1, 2, 5 μM; kojic acid 5 μM; α-MSH 1 μM + IBMX 200 μM, 72 h
Description: To investigate the origins of the anti-melanogenic effects of compounds 3, 8, and 13, their impacts on B16F10 cellular tyrosinase inhibition were evaluated. The experiment utilized a similar experimental method and the same concentrations as those used in the melanin content experiment. Compounds 3, 8, and 13 (1, 2, and 5 μM), kojic acid (5 μM: positive control), and stimulators (1 μM α-MSH and 200 μM IBMX) were used in this experiment. Prior to treatment with the stimulators for 72 h, the test samples (3, 8, 13, and kojic acid) were pre-treated for 1 h.
3.9. Cellular Tyrosinase Activity Assay in B16F10 Cells
The effects of compounds 3, 8, and 13 on B16F10 cellular tyrosinase activity were assessed using a previously reported method. B16F10 cells were seeded, treated with the samples and stimulators, and cultured for 72 h in the same manner as for the cellular melanin content assay. To lyse the cultured cells, a lysis buffer was prepared containing 1 mM phenylmethylsulfonyl fluoride, 50 mM phosphate buffer, and 1% Triton X-100 (5:90:5, v/v/v). The cultivated cells were lysed by adding the prepared lysis buffer (100 µL) after washing twice with PBS. The lysed cells were centrifuged for 30 min at 4 °C and 10,000 g after freezing for 1 h at −80 °C. The supernatants (80 µL) and 10 mM L-dopa (20 µL) were added to each well of a 96-well plate and cultivated for 10 min at 37 °C. The optical density was measured at 475 nm using an ELISA reader. Normalization was performed using a Pierce BCA Protein Assay Kit.

[3] = test system: B16F10 tyrosinase in situ; details: compounds 1, 2, 5 μM; kojic acid 5 μM; α-MSH + IBMX 72 h; excess L-dopa
Description: To evaluate the effect of the compounds on in situ tyrosinase activity, an experiment using B16F10 cells was performed as previously described [34, 35]. […] Excess L-dopa was added to increase their melanin production prior to the acquisition of cell images.
In Situ Tyrosinase Activity Assay Using B16F10 Cells and L-dopa
In situ tyrosinase activity was measured in B16F10 cells using L-dopa, as reported previously [34]. […] The cells were processed as follows: (1) fixing with 4% paraformaldehyde for 40 min, (2) washing with PBS, and (3) permeabilizing with 0.1% Triton X-100 for 2 min. After washing with PBS, the cells were stained with L-dopa (2 mM; 500 μL) at 37 °C for 2 h. Stained images were collected using a camera connected to a microscope (Motic, Hong Kong).

mushroom tyrosinase = molecular target: T1, mushroom tyrosinase (Agaricus bisporus, UniProt C7FF04); assay: Kinetic study using mushroom tyrosinase (Lineweaver–Burk and Dixon plots); assay type: biochemical; details: for inhibition mode (Lineweaver–Burk plots): substrate L-dopa 0.5–16 mM; for Ki: substrate L-dopa 1, 2, 4, 8 mM, read-out: inhibition constant Ki (Dixon plot)
T1 construct: purchased Sigma-Aldrich (St. Louis, MO, USA)
T1 sequence (C7FF04 1-392 limits assumed): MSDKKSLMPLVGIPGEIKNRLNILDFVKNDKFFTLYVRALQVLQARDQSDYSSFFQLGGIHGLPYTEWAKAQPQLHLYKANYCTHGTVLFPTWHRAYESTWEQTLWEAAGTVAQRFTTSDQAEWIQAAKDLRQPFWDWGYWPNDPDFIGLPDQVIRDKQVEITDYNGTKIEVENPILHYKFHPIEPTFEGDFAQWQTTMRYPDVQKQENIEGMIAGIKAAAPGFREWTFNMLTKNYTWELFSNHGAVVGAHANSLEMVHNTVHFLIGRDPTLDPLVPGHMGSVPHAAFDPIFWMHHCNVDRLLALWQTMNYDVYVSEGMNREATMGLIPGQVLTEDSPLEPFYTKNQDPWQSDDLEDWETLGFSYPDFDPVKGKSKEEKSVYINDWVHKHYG
Description: For the inhibition mechanism study of the 2-phenylbenzoxazole compounds, kinetic studies of mushroom tyrosinase were conducted. […] Kinetic experiments were performed using various concentrations of L-dopa. Lineweaver–Burk plots were obtained for each compound by plotting the inverse of the L-dopa concentration against the inverse of the initial rate of dopachrome production (Figure 4). In the Lineweaver–Burk plots (Figure 4B,C), the lines for compounds 8 and 13 merged at one point on the y-axis, whereas the lines for 3 (Figure 4A) merged at one point in the second quadrant.
These Dixon plots were obtained by plotting the inhibitor concentration against the inverse of the initial dopachrome production rate (Figure 5). The four lines for each Dixon plot were merged at one point in the second quadrant. The absolute x-coordinate of each merged point represents the Ki value of each compound.
3.4. Kinetic Study Experiment Using Mushroom Tyrosinase
Mushroom tyrosinase was incubated with 2-phenylbenzoxazole inhibitors (3, 8, or 13) in the presence of various concentrations (0.5–16 mM) of L-dopa to measure the initial dopachrome production rate. An aqueous substrate mixture, consisting of phosphate buffer (pH 6.5; 17.2 mM) and L-dopa (345 μM), was prepared. A 96-well plate containing the inhibitor DMSO solution (10 μL), aqueous mushroom tyrosinase solution (20 μL; 20 units), and aqueous substrate mixture (170 μL) in each well was incubated for 20 min at 37 °C. During incubation, the absorbance at 475 nm was recorded at 5 min intervals using an ELISA reader to prepare Lineweaver–Burk plots for each inhibitor.

Row | inhibition mode (Lineweaver–Burk plots) (mushroom tyrosinase) | Compound | ABTS+• scavenging activity (% inhibition) [1] | melanin content in B16F10 cells (B16F10 cells) | B16F10 cellular tyrosinase activity [2] | melanin formation, in situ tyrosinase activity in B16F10 cells [3] | Ki (mushroom tyrosinase) | melanin content in B16F10 cells at 5 μM vs kojic acid (B16F10 cells)
1 | competitive inhibitors | Cc1ccc2oc(-c3ccc(O)cc3O)nc2c1 [Compound 13, 4-(5-Methylbenzo[d]oxazol-2-yl)benzene-1,3-diol] | 54% | decreased the melanin content in a concentration-dependent manner | reduced the stimulator-induced tyrosinase activity in a concentration-dependent manner | reduced melanin formation in a concentration-dependent manner | 17.2 µM | 
2 | mixed-type inhibitor | Cc1ccc2nc(-c3ccc(O)cc3O)oc2c1 [Compound 3, 4-(6-Methylbenzo[d]oxazol-2-yl)benzene-1,3-diol] | 57% | decreased the melanin content in a concentration-dependent manner | reduced the stimulator-induced tyrosinase activity in a concentration-dependent manner | reduced melanin formation in a concentration-dependent manner |  | decreased the melanin content levels much more strongly than kojic acid

Row | Compound | inhibition mode (Lineweaver–Burk plots) (mushroom tyrosinase) | ABTS+• scavenging activity (% inhibition) [1] | melanin content in B16F10 cells (B16F10 cells) | B16F10 cellular tyrosinase activity [2] | melanin formation, in situ tyrosinase activity in B16F10 cells [3] | Ki (mushroom tyrosinase) | melanin content in B16F10 cells at 5 μM vs kojic acid (B16F10 cells)
3 | Oc1ccc(-c2nc3ccc(Cl)cc3o2)c(O)c1 [Compound 8, 4-(6-Chlorobenzo[d]oxazol-2-yl)benzene-1,3-diol] | competitive inhibitors | 64% | decreased the melanin content in a concentration-dependent manner | reduced the stimulator-induced tyrosinase activity in a concentration-dependent manner | reduced melanin formation in a concentration-dependent manner | 12.5 µM | decreased the melanin content levels much more strongly than kojic acid
